Data reported in patent US11186577B2, “Vasopressin receptor antagonists and products and methods related thereto” (BlackThorn Therapeutics, Inc., priority 2017, dated 2021).
Like-named read-outs stand apart in the source and are kept apart here.

Key:
[1] = target: human Oxytocin Receptor (hOTR) (Homo sapiens (Human), UniProt P30559); experiment: Oxytocin receptor antagonist assay (oxytocin-evoked calcium, FLIPR, CHEM-1-hOTR cells); type: cell-based; settings: read-out: OT IC50
Procedure: This assay was performed in CHEM-1 cells expressing the human Oxytocin Receptor (hOTR) to determine the inhibitory effect of the compounds of the invention on the human Oxytocin receptor. Oxytocin evokes an increase in intracellular calcium in CHEM-1-hOTR cells which is measured in a fluorescence assay on the FLIPR^TETRA using calcium sensitive dyes. Test compounds were assessed for their ability to affect the magnitude of the response to oxytocin, with antagonists showing a concentration-dependent reduction in the oxytocin-mediated fluorescence.
CHEM-1-hOTR ready was used to assay frozen cells (Eurofins #HTS090RTA) which are supplied with a proprietary Media Component.
Cells were thawed in a 37° C. water bath and diluted with the supplied Media Component to a final volume of 10 ml. The cell suspension was centrifuged at 1000 rpm for 3 min at room temperature and the supernatant was discarded. The cell pellet was resuspended in Media Component (10.5 ml) and the cells (25 μL) were dispensed into a poly-D-lysine coated black, clear bottomed, 384-well plate. The plates were incubated overnight at 37° C., 5% CO2.
(§1) At the start of each assay day the potency of oxytocin was assessed and an EC80 concentration was determined for subsequent compound profiling. Assays were performed using a two-step addition protocol on the FLIPR^TETRA; first addition of 5 μl of control or test compound at 10× final in assay buffer with 15 min incubation at 37° C., 5% CO2 followed by 10 μl of oxytocin at 6× final concentration in assay buffer. Changes in fluorescence were monitored for 3 min after both additions on the FLIPR^TETRA using 470-495 nm excitation and 515-575 nm emission wavelengths. The assay buffer consisted of HBSS (+Ca/+Mg) supplemented with 20 mM HEPES, and for the preparation of the oxytocin agonist only, 0.1% w/v bovine serum albumin. The assay was initiated by the removal of growth media from the cells and replaced with 45 μl of Calcium-6 dye (Molecular Devices) prepared at 1× in assay buffer. Cells were loaded with dye for 60-90 min at 37° C., 5% CO2 before initiation of the FLIPR^TETRA protocol. […] For compound profiling, test compounds were first serially diluted in DMSO (10-point curve, 1:3 dilutions) then diluted 33.3-fold in assay buffer prior to addition to the dye loaded cells on the FLIPR^TETRA. At the end of the incubation period 10 μl of oxytocin in assay buffer containing 0.1% BSA was added at the previously determined EC80 concentration.
In-plate controls for the assay include a L-368,899 concentration-response curve as the reference OTR antagonist and an oxytocin concentration-response curve to confirm the reproducibility of the EC80 used for the compound challenge.

[2] = target: human Arginine Vasopressin Receptor 1a (AVPR1a) (Homo sapiens (Human), UniProt P37288); experiment: Vasopressin V1A receptor antagonist assay (AVP-evoked calcium, FLIPR, CHO-AVPR1a cells); type: cell-based
In short: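 CHO cells expressing human AVPR1a, Calcium-6 dye loaded 60-90 min, preincubated with compound 15 min at 37° C., then challenged with AVP at its daily-determined EC80. FLIPR fluorescence; 10-point 1:3 series from 3 μM, duplicates.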

[3] = target: human Arginine Vasopressin Receptor 1b (AVPR1b) (Homo sapiens (Human), UniProt P47901); experiment: Vasopressin V1B receptor antagonist assay (AVP-evoked calcium, FLIPR, CHO-AVPR1b cells); type: cell-based
Procedure: The purpose of the assay is to determine the inhibitory effect of synthesized compounds on the Vasopressin V1b receptor. The assay was performed in Chinese Hamster Ovary (CHO) cells expressing the human Arginine Vasopressin Receptor 1b (AVPR1b). Arginine Vasopressin (AVP) evokes an increase in intracellular calcium in CHO-AVPR1b cells which is measured in a fluorescence assay on the FLIPR^TETRA using calcium sensitive dyes. Test compounds were assessed for their ability to affect the magnitude of the response to AVP, with antagonists showing a concentration-dependent reduction in the AVP-mediated fluorescence.
CHO-AVPR1b cells were maintained in routine culture in T175 Flasks at 37° C., 5% CO2. The growth medium consisted of Ham's F12 media supplemented with 10% v/v fetal bovine serum, 1× non-essential amino acids, and 0.4 mg/ml Geneticin G418.
Cells were harvested from T175 flasks when they were 80-90% confluent by first washing the cell monolayer with PBS and then dissociated using trypsin 0.05%/EDTA (3 mL for a T175 Flask). The flasks were incubated at room temperature until the cells detached. To the cell suspension, 10 ml of growth media was added and the cell density determined using the Vi-Cell automated cell counter. The cells were spun at 1000 rpm for 3 minutes, then the supernatant was carefully removed and discarded. The cell pellet was re-suspended at 6.0e^5 cells/ml in growth media. 25 μL of cells in growth media was dispensed into each well (15,000 cells per well) of a poly-D-lysine coated black, clear bottomed, 384-well plate. The plates were incubated at 37° C., 5% CO2 overnight.
as §1, with “day,” for “day”, “AVP is” for “oxytocin was”, “concentration” for “concentration was”, “AVP” for “oxytocin”, “replacement” for “replaced”
In-plate controls for the assay include a Nelivaptan concentration-response curve as the reference V1b antagonist and an AVP concentration-response curve to confirm the reproducibility of the EC80 used for the compound challenge.

[4] = target: human Arginine Vasopressin Receptor V2 (AVPR2) (Homo sapiens (Human), UniProt P30518); experiment: Vasopressin V2 receptor antagonist assay (cAMP TR-FRET, 1321N1 cells); type: cell-based
Procedure: The purpose of the assay was to determine the inhibitory effect of synthesized compounds on the Vasopressin receptor 2. […] Arginine Vasopressin (AVP) evokes an increase in intracellular cAMP in these cells which is measured in a TR-FRET assay using a Europium cAMP tracer and ULight labelled antibody reagents contained in a LANCE Ultra cAMP kit (Perkin Elmer #TRF0263). […] Test compounds were assessed for their ability to affect the magnitude of the response to AVP, with antagonists showing a concentration-dependent decrease in the AVP-mediated reduction in TR-FRET signal.
cAMPZen V2 assay ready cells were thawed at 37° C. and resuspended directly from frozen in 9 ml growth medium consisting of DMEM supplemented with 10% v/v fetal bovine serum, 1× non-essential amino acids, and 1 mM sodium pyruvate. Cells were spun at 1000 rpm for 3 minutes and the supernatant was carefully removed and discarded. The pellet was resuspended in 5 ml stimulation buffer and the cell density determined using the Vi-Cell automated cell counter. The cell suspension was diluted to a 0.2×10^6/ml suspension ready for plating. […] Stimulation buffer consisted of HBSS (+Ca/+Mg) supplemented with 5 mM HEPES, 0.1% BSA stabiliser and 0.5 mM IBMX.
At the start of each assay day the potency of AVP was assessed and an EC80 concentration determined for subsequent compound profiling. Assays were performed by first an addition of 2.5 μl of control or test compound at 4× final concentration in stimulation buffer followed by 2.5 μl of AVP at 4× final concentration in stimulation buffer. After a 1 hour reaction, detection reagents were added by first an addition of 5 μl EU-cAMP tracer, followed by 5 μl ULight-anti-cAMP both diluted as per the manufacturer's instructions. […] For compound profiling, test compounds were dispensed by the Labcyte Echo (10-point curve, 1:3 dilutions) in a target 0.1 μl volume then diluted 750-fold in stimulation buffer containing 3% DMSO prior to addition to the cells. At the end of the incubation period, 2.5 μl of AVP in stimulation buffer was added at the previously determined EC80 concentration.

[5] = tested on: MDR1 (P-glycoprotein); experiment: MDR1-MDCK effective efflux assay (Transwell, 10 μM, 1 hour), MDR1-MDCK cells; type: in vitro ADME; settings: dog, MDCK-MDR1, pH 7.4, MDR1-MDCK cells, apical to basolateral (A>B), 10 μM, 1 hour; read-out: Papp AB MDR1
Procedure: (§2) The MDR1-MDCK effective efflux assay was performed as described in the BioFocus Standard Operating Procedure, ADME-SOP-56. Both wild-type (WT) and MDR1-MDCK cells (Solvo Biotechnology) were seeded onto 24-well Transwell plates at 2.35×10^5 cells per well and used in confluent monolayers after a 3 day culture at 37° C. under 5% CO2. For both cell types, test and control compounds (propranolol, vinblastine) were added (10 μM, 0.1% DMSO final, n=2) to donor compartments of the Transwell plate assembly in assay buffer (Hanks balanced salt solution supplemented with 25 mM HEPES, adjusted to pH 7.4) for both apical to basolateral (A>B) and basolateral to apical (B>A) measurements. Incubations were performed at 37° C., with samples removed from both donor and acceptor chambers at T=0 and 1 hour and compound analysed by mass spectrometry (LC-MS/MS) including an analytical internal standard.
(§3) Where V is the volume of each Transwell compartment (apical 125 basolateral 600 and concentrations are the relative MS responses for compound (normalized to internal standard) in the donor chamber before incubation and acceptor chamber at the end of the incubation. Area=area of cells exposed for drug transfer (0.33 cm2).
(§4) Efflux ratios (Papp B>A/Papp A>B) were calculated for each compound from the mean Papp values in each direction for both wild-type and MDR1-MDCK cells.
(§5) In order to confirm the involvement of MDR1 in any efflux seen, an “effective efflux ratio” (EER) was calculated by comparing compound efflux ratios (ER) in the two cell types, i.e. EER=ER(MDR1−MDCK)/ER(wild-type MDCK)
(§6) This ratio illustrates the effect of the over-expressed MDR1 normalised for the background movement of compound through the wild-type cells.
(§7) Lucifer Yellow (LY) was added to the apical buffer in all wells to assess viability of the cell layer. Compound recovery from the wells was determined from MS responses (normalized to internal standard) in donor and acceptor chambers at the end of incubation compared to response in the donor chamber pre-incubation.

[6] = MDR1-MDCK effective efflux assay (Transwell, 10 μM, 1 hour), wild-type MDCK cells; type: in vitro ADME; settings: dog, MDCK, pH 7.4, wild-type MDCK cells, apical to basolateral (A>B), 10 μM, 1 hour; read-out: Papp AB WT
Procedure: as §2, §3, §4, §5, §6, §7

human Oxytocin Receptor (hOTR), sequence (P30559 whole entry): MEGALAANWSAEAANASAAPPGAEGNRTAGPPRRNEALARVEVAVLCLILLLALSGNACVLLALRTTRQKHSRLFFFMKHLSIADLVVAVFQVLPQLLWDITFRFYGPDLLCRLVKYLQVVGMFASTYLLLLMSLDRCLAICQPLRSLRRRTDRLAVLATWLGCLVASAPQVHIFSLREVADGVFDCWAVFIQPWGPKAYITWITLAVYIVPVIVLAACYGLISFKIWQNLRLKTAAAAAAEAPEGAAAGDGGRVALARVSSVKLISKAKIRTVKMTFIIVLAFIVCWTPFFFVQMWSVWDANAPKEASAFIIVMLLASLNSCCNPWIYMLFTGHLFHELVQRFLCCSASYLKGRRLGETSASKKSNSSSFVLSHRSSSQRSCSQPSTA
human Arginine Vasopressin Receptor 1a (AVPR1a), sequence (P37288 whole entry): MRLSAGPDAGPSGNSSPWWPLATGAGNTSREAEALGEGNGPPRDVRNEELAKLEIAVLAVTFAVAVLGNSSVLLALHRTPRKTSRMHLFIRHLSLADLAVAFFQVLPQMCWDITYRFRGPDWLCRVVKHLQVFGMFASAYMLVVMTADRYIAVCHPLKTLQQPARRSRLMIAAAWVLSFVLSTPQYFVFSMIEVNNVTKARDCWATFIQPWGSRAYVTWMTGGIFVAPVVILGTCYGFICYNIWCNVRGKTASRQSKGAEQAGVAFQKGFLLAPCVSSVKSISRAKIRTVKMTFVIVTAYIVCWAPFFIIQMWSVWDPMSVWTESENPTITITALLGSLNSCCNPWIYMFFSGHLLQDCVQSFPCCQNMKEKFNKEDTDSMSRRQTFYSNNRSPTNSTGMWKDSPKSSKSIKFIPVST
human Arginine Vasopressin Receptor 1b (AVPR1b), sequence (P47901 whole entry): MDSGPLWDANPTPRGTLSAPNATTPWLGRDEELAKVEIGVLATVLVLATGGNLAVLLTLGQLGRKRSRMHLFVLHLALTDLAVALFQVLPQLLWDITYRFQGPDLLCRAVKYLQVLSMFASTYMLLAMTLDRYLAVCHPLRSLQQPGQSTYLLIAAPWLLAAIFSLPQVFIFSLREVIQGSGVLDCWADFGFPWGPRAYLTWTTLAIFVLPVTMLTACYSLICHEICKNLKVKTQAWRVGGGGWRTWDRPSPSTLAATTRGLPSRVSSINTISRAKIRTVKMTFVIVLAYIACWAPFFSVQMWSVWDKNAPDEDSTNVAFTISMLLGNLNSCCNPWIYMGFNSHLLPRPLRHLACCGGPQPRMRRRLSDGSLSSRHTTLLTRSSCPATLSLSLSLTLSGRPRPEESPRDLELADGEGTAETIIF
human Arginine Vasopressin Receptor V2 (AVPR2), sequence (P30518 whole entry): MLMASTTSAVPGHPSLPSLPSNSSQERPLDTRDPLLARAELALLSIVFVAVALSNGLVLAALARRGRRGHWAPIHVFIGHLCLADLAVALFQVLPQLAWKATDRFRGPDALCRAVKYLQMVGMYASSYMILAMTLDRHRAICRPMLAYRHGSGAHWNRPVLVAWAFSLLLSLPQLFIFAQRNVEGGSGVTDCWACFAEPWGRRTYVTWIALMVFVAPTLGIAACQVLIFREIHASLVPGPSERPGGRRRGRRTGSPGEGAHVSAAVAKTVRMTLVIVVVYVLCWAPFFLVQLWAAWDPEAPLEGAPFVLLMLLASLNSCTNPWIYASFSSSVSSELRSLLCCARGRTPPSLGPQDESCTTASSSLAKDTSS

Structure (SMILES): CC1c2nnc(C3CC4(C3)CN(c3ncccn3)C4)n2-c2ccc(Cl)cc2CN1C(=O)OC(C)(C)CF (stereo not drawn) [compound 196]
- IC50 [1]: > 1000 nM
- IC50 ([2]; read-out: V1a IC50): < 100 nM
- IC50 [3]: > 1000 nM

Structure (SMILES): COC(=O)N1Cc2cc(Cl)ccc2-n2c(C3CC4(C3)CN(c3ncccn3)C4)nnc2C12CC2 [compound 199]
- IC50 [1]: > 1000 nM
- IC50 ([2]; read-out: V1a IC50): < 100 nM
- IC50 [3]: > 1000 nM

Structure (SMILES): Cc1nc(N2CC3(CC(c4nnc5n4-c4ccc(Cl)cc4CN(C4CC4)C5)C3)C2)ccc1F [compound 229]
- IC50 [1]: 500 to 1000 nM
- IC50 ([2]; read-out: V1a IC50): < 100 nM
- IC50 [4]: < 100 nM

Structure (SMILES): CC(C)OC(=O)N1Cc2cc(Cl)ccc2-n2c(C3CC4(C3)CN(c3cccc(C#N)n3)C4)nnc2C1C (single isomer, unassigned) [Cpd 204A]
- IC50 [1]: 100 to 500 nM
- IC50 ([2]; read-out: V1a IC50): < 100 nM
- IC50 [3]: > 1000 nM

Structure (SMILES): O=C1OCC2c3nnc(C4CC5(C4)CN(c4ccc(F)cn4)C5)n3-c3ccc(Cl)cc3CN12 (stereo not drawn) [compound 200, 7-chloro-3-(2-(5-fluoropyridin-2-yl)-2-azaspiro[3.3]heptan-6-yl)-13,13a-dihydro-9H,11H-benzo[e]oxazolo[3,4-a][1,2,4]triazolo[3,4-c][1,4]diazepin-11-one]
- Papp A→B at 1 h, 10 μM [5]: < 7 ×10⁻⁶ cm/s
- IC50 [2]: 100 to 500 nM
- Papp A→B at 1 h, 10 μM [6]: > 20 ×10⁻⁶ cm/s

Structure (SMILES): CC1c2nnc(C3CC4(C3)CN(c3ccc(F)cn3)C4)n2-c2ccc(Cl)cc2CN1C(=O)OC(C)(C)CF (single isomer, unassigned) [Cpd 206B]
- IC50 [1]: > 1000 nM
- IC50 ([2]; read-out: V1a IC50): 100 to 500 nM
- IC50 [3]: > 1000 nM

Structure (SMILES): CC1c2nnc(C3CC4(C3)CN(c3ncccn3)C4)n2-c2ccc(Cl)cc2CN1C(=O)OC1(C)CC1 (single isomer, unassigned) [Cpd 205A]
- IC50 [1]: 500 to 1000 nM
- IC50 ([2]; read-out: V1a IC50): < 100 nM
- IC50 [3]: > 1000 nM

Structure (SMILES): CC(C)OC(=O)N1Cc2cc(Cl)ccc2-n2c(C3CC4(C3)CN(c3cccc(C#N)n3)C4)nnc2C1C (single isomer, unassigned) [Cpd 204B]
- IC50 [1]: > 1000 nM
- IC50 ([2]; read-out: V1a IC50): 100 to 500 nM
- IC50 [3]: > 1000 nM

Structure (SMILES): CC1c2nnc(C3CC4(C3)CN(c3ncccn3)C4)n2-c2ccc(Cl)cc2CN1C(=O)OC1(C)CC1 (single isomer, unassigned) [Cpd 205B]
- IC50 [1]: > 1000 nM
- IC50 ([2]; read-out: V1a IC50): > 1000 nM
- IC50 [3]: > 1000 nM

Structure (SMILES): CC1c2nnc(C3CC4(C3)CN(c3ccc(F)cn3)C4)n2-c2ccc(Cl)cc2CN1C(=O)OC(C)(C)CF (single isomer, unassigned) [Cpd 206A]
- IC50 [1]: 100 to 500 nM
- IC50 ([2]; read-out: V1a IC50): < 100 nM
- IC50 [3]: > 1000 nM

Structure (SMILES): CCC1c2nnc(C3CC4(C3)CN(c3ccc(F)cn3)C4)n2-c2ccc(Cl)cc2CN1C(=O)OC (stereo not drawn) [compound 197, methyl 8-chloro-4-ethyl-1-(2-(5-fluoropyridin-2-yl)-2-azaspiro[3.3]heptan-6-yl)-4H-benzo[f][1,2,4]triazolo[4,3-a][1,4]diazepine-5(6H)-carboxylate]
- Papp A→B at 1 h, 10 μM [5]: > 20 ×10⁻⁶ cm/s
- IC50 [2]: 100 to 500 nM
- Papp A→B at 1 h, 10 μM [6]: > 20 ×10⁻⁶ cm/s
